From ChEMBL document CHEMBL4819019, “Design, synthesis, antibacterial activity and toxicity of novel quaternary ammonium compounds based on pyridoxine and fatty acids” (Eur J Med Chem, 2021)
≈ marks a conversion by molar mass, not a printed value. Calls of active or inactive are those of the source. The calls are words filed in the database; no cut-off is given here.

Experiments:
Staphylococcus aureus [1] = assay: Antibacterial activity against clinical isolate methicillin-resistant Staphylococcus aureus 983 measured after 24 hrs by broth microdilution method; assay type: functional
[2] = Cytotoxicity against human HEK293 cells assessed as cell viability measured after 72 hrs by MTT assay; assay type: cell-based
Staphylococcus aureus [3] = assay: Antibacterial activity against clinical isolate methicillin-resistant Staphylococcus aureus 1053 measured after 24 hrs by broth microdilution method; assay type: functional
[4] = system: Staphylococcus intermedius; assay: Antibacterial activity against clinical isolate methicillin-resistant Staphylococcus intermedius 1061 measured after 24 hrs by broth microdilution method; assay type: functional
Staphylococcus aureus [5] = assay: Antibacterial activity against clinical isolate Staphylococcus aureus 25 measured after 24 hrs by broth microdilution method; assay type: functional
Staphylococcus aureus [6] = assay: Antibacterial activity against Staphylococcus aureus ATCC 29213 measured after 24 hrs by broth microdilution method; assay type: functional
Staphylococcus aureus [7] = assay: Antibacterial activity against clinical isolate methicillin-resistant Staphylococcus aureus 1131 measured after 24 hrs by broth microdilution method; assay type: functional
Escherichia coli [8] = assay: Antibacterial activity against Escherichia coli MG 1655 measured after 24 hrs by broth microdilution method; assay type: functional
[9] = Cytotoxicity against human skin fibroblasts assessed as cell viability measured after 72 hrs by MTT assay; assay type: cell-based, Fibroblast
[10] = system: Staphylococcus intermedius; assay: Antibacterial activity against clinical isolate methicillin-resistant Staphylococcus intermedius 1143 measured after 24 hrs by broth microdilution method; assay type: functional
Klebsiella pneumoniae = assay: Antibacterial activity against clinical isolate Klebsiella pneumoniae 1813 measured after 24 hrs by broth microdilution method; assay type: functional
Pseudomonas aeruginosa [11] = assay: Antibacterial activity against Pseudomonas aeruginosa ATCC 27853 measured after 24 hrs by broth microdilution method; assay type: functional
Pseudomonas aeruginosa [12] = assay: Antibacterial activity against clinical isolate Pseudomonas aeruginosa 1945 measured after 24 hrs by broth microdilution method; assay type: functional
Staphylococcus aureus [13] = assay: Antibacterial activity against clinical isolate methicillin-resistant Staphylococcus aureus 1065 measured after 24 hrs by broth microdilution method; assay type: functional
Proteus sp. = assay: Antibacterial activity against clinical isolate Proteus sp. 17 measured after 24 hrs by broth microdilution method; assay type: functional; conditions: Proteus sp. (in: enterobacteria)
[14] = system: Staphylococcus ureilyticus; assay: Antibacterial activity against clinical isolate Staphylococcus ureilyticus 1972 measured after 24 hrs by broth microdilution method; assay type: functional
Escherichia coli [15] = assay: Antibacterial activity against Escherichia coli assessed as fold increase in MIC after 4 passages by serial dilution method; assay type: functional, organism-based; conditions: time 24.0 hrs
Enterococcus faecalis [16] = assay: Antibacterial activity against clinical isolate Enterococcus faecalis 3063 measured after 24 hrs by broth microdilution method; assay type: functional
[17] = Lipophilicity, logP of the compound; assay type: physicochemical; conditions: octanol/water
Staphylococcus aureus [18] = assay: Antibacterial activity against Staphylococcus aureus assessed as fold increase in MIC after 8 passages by serial dilution method; assay type: functional, organism-based; conditions: time 24.0 hrs
[19] = Acute toxicity in po dosed C57BL/6CBA mouse measured upto 7 days; assay type: organism-based; conditions: in vivo, time <=7 day
Serratia marcescens = assay: Antibacterial activity against clinical isolate Serratia marcescens 1966 measured after 24 hrs by broth microdilution method; assay type: functional
Pseudomonas sp. = assay: Antibacterial activity against clinical isolate Pseudomonas sp. 5 measured after 24 hrs by broth microdilution method; assay type: functional
Acinetobacter sp. = assay: Antibacterial activity against clinical isolate Acinetobacter sp. 3 measured after 24 hrs by broth microdilution method; assay type: functional
Moraxella = assay: Antibacterial activity against clinical isolate Moraxella 765 measured after 24 hrs by broth microdilution method; assay type: functional
Klebsiella sp. = assay: Antibacterial activity against clinical isolate Klebsiella sp. 11 measured after 24 hrs by broth microdilution method; assay type: functional
Escherichia coli [20] = assay: Antibacterial activity against clinical isolate Escherichia coli 718 measured after 24 hrs by broth microdilution method; assay type: functional
Micrococcus luteus = assay: Antibacterial activity against Micrococcus luteus clinical isolate measured after 24 hrs by broth microdilution method; assay type: functional
Staphylococcus aureus [21] = assay: Antibacterial activity against clinical isolate methicillin-resistant Staphylococcus aureus 713 measured after 24 hrs by broth microdilution method; assay type: functional
Bacillus subtilis = assay: Antibacterial activity against Bacillus subtilis 168 measured after 24 hrs by broth microdilution method; assay type: functional
[22] = Cytotoxicity against human mesenchymal stem cells assessed as cell viability measured after 72 hrs by MTT assay; assay type: cell-based
Enterococcus faecalis [23] = assay: Antibacterial activity against clinical isolate Enterococcus faecalis 23 measured after 24 hrs by broth microdilution method; assay type: functional
[24] = Genotoxicity in Salmonella typhimurium TA100 assessed as number of revertant by Ames spot test relative to solvent control; assay type: toxicity; conditions: salmonella enterica subsp. enterica serovar typhimurium
[25] = Genotoxicity in Salmonella typhimurium TA98 assessed as number of revertant by Ames spot test relative to solvent control; assay type: toxicity; conditions: salmonella enterica subsp. enterica serovar typhimurium
[26] = Genotoxicity in Salmonella typhimurium TA1535/pSK1002 assessed as DNA-damage activity by measuring beta-galactosidase activity at 150 ug/ml measured by SOS-chromotest relative to solvent control; assay type: toxicity; conditions: salmonella enterica subsp. enterica serovar typhimurium; dose 150 µg/ml
[27] = Genotoxicity in Salmonella typhimurium TA1535 assessed as number of revertant by Ames spot test relative to solvent control; assay type: toxicity; conditions: salmonella enterica subsp. enterica serovar typhimurium
[28] = Genotoxicity in Salmonella typhimurium TA1535/pSK1002 assessed as DNA-damage activity by measuring beta-galactosidase activity at 750 ug/ml measured by SOS-chromotest relative to solvent control; assay type: toxicity; conditions: salmonella enterica subsp. enterica serovar typhimurium; dose 750 µg/ml
[29] = Genotoxicity in Salmonella typhimurium TA1535/pSK1002 assessed as DNA-damage activity by measuring beta-galactosidase activity at 15 ug/ml measured by SOS-chromotest relative to solvent control; assay type: toxicity; conditions: salmonella enterica subsp. enterica serovar typhimurium; dose 15 µg/ml
[30] = Genotoxicity in Salmonella typhimurium TA1535/pSK1002 assessed as DNA-damage activity by measuring beta-galactosidase activity at 7.5 ug/ml measured by SOS-chromotest relative to solvent control; assay type: toxicity; conditions: salmonella enterica subsp. enterica serovar typhimurium; dose 7.5 µg/ml
[31] = Genotoxicity in Salmonella typhimurium TA1537 assessed as number of revertant by Ames spot test relative to solvent control; assay type: toxicity; conditions: salmonella enterica subsp. enterica serovar typhimurium
[32] = Genotoxicity in Salmonella typhimurium TA1535/pSK1002 assessed as DNA-damage activity by measuring beta-galactosidase activity at 75 ug/ml measured by SOS-chromotest relative to solvent control; assay type: toxicity; conditions: salmonella enterica subsp. enterica serovar typhimurium; dose 75 µg/ml

Row | SMILES | MIC (Staphylococcus aureus [1]) | CC50 at 72 h [2] | MIC (Staphylococcus aureus [3]) | MIC [4] | MIC (Staphylococcus aureus [5]) | MIC (Staphylococcus aureus [6]) | MIC (Staphylococcus aureus [7]) | MIC (Escherichia coli [8]) | CC50 at 72 h [9] | MIC [10] | MIC (Klebsiella pneumoniae) | MIC (Pseudomonas aeruginosa [11]) | MIC (Pseudomonas aeruginosa [12]) | MIC (Staphylococcus aureus [13]) | MIC (Proteus sp.) | MIC [14] | logP [17] | MIC (Micrococcus luteus) | MIC (Bacillus subtilis) | CC50 at 72 h [22] | further results
1 | CCCCCCCCCCCCCC(=O)NCCC[N+](C)(C)Cc1ccccc1.[Cl-] [MIRAMISTIN] | > 64 µg/mL | 6.08 µg/mL | 32 µg/mL | 64 µg/mL | 16 µg/mL | 2 µg/mL | 32 µg/mL | 8 µg/mL | 7.21 µg/mL | 64 µg/mL | 16 µg/mL | 1 µg/mL | 64 µg/mL | 32 µg/mL | > 64 µg/mL | > 64 µg/mL | 2.43 | 2 µg/mL | 4 µg/mL | 4.16 µg/mL | MIC (Escherichia coli [15]): Active; MIC (Enterococcus faecalis [16]): 16 µg/mL; MIC (Staphylococcus aureus [18]): Active; LD50 at 168 h [19]: 1000 mg/kg; MIC (Serratia marcescens): > 64 µg/mL; MIC (Pseudomonas sp.): > 64 µg/mL; MIC (Acinetobacter sp.): > 64 µg/mL; MIC (Moraxella): > 64 µg/mL; MIC (Klebsiella sp.): > 64 µg/mL; MIC (Escherichia coli [20]): 64 µg/mL; MIC (Staphylococcus aureus [21]): 64 µg/mL; MIC (Enterococcus faecalis [23]): 4 µg/mL
2 | CCCCCCCCCCCCCC(=O)NCC[N+](C)(C)Cc1cnc(C)c2c1COC(C)(C)O2.[Cl-] | 64 µg/mL | 1.18 µg/mL | 4 µg/mL | 4 µg/mL | 4 µg/mL | 2 µg/mL | 16 µg/mL | 8 µg/mL | 3.03 µg/mL | 4 µg/mL | 4 µg/mL | 2 µg/mL | 64 µg/mL | 8 µg/mL | > 64 µg/mL | 64 µg/mL | 1.41 | 4 µg/mL | 4 µg/mL | 2.16 µg/mL | Ratio [24]: 1.3; Ratio [25]: 1.7; Ratio [26]: 0.5; MIC (Enterococcus faecalis [16]): 2 µg/mL; Ratio [27]: 0.8; MIC (Serratia marcescens): 64 µg/mL; MIC (Pseudomonas sp.): 64 µg/mL; MIC (Acinetobacter sp.): 64 µg/mL; MIC (Moraxella): 64 µg/mL; MIC (Klebsiella sp.): 64 µg/mL; MIC (Escherichia coli [20]): 32 µg/mL; Ratio [28]: 0.4; Ratio [29]: 1.5; MIC (Staphylococcus aureus [21]): 4 µg/mL; MIC (Enterococcus faecalis [23]): 2 µg/mL; Ratio [30]: 1.5; Ratio [31]: 0.06; Ratio [32]: 0.7
3 | [H]/N=C(\N/C(=N/[H])NCCCCCCNC(=N)NC(=N)Nc1ccc(Cl)cc1)Nc1ccc(Cl)cc1 [CHLORHEXIDINE] |  | 7.28 µg/mL (≈ 14.4 µM) |  |  |  | 2 µg/mL (≈ 3.96 µM) |  | 1 µg/mL (≈ 1.98 µM) | 6.32 µg/mL (≈ 12.5 µM) |  |  | 4 µg/mL (≈ 7.91 µM) |  |  |  |  | 4.51 | 0.5 µg/mL (≈ 0.989 µM) | 1 µg/mL (≈ 1.98 µM) | 5.12 µg/mL (≈ 10.1 µM) | LD50 at 168 h [19]: 1260 mg/kg
